The test system of data set [1] is BRD2/3/4. As to the kind of experiment: ChIP-seq of BRD2/3/4 in VCaP cells. Format: cell-based. The following applies: 500 nM, 12 h. The procedure:
(§1) The ChIP assays for BRD2, BRD3, BRD4, AR, RNA PolII, ERG and H3K27ac were performed using HighCell ChIP kit (Diagenode) according to manufacturer's protocol. […] Next, cells were cross-linked for 10 min. with 1% formaldehyde. […] Chromatin equivalent to 5×10^6 cells were used for ChIP using different antibodies. ChIP DNA was isolated (IPure Kit, Diagenode) from samples by incubation with the antibody at 4° C. overnight followed by wash and reversal of cross-linking. The ChIP-seq sample preparation for sequencing was performed according to the manufacturer's instructions (Illumina). […] A single A-base was added to fragment ends by Klenow fragment (3′ to 5′ exo minus; NEB) followed by ligation of Illumina adaptors (Quick ligase, NEB). The adaptor-modified DNA fragments were enriched by PCR using the Illumina Barcode primers and Phusion DNA polymerase (NEB). PCR products were size selected using 3% NuSieve agarose gels (Lonza) followed by gel extraction using QIAEX II reagents (QIAGEN). Libraries were quantified with the Bioanalyzer 2100 (Agilent) and sequenced on the Illumina HiSeq 2000 Sequencer (100 nucleotide read length).

The subject of data set [2] is VCaP xenograft model. As to the kind of experiment: Spontaneous metastasis in the VCaP xenograft model (human Alu qPCR). The following applies: femur, liver and spleen; JQ1 50 mg/kg, MDV3100 10 mg/kg. Format: in vivo, mice. The procedure:
(§2) Four week-old male SCID C.B17 mice were procured from a breeding colony at University of Michigan. All procedures involving mice were approved by the University Committee on Use and Care of Animals (UCUCA) at the University of Michigan and conform to all regulatory standards. Mice were anesthetized using 2% Isoflurane (inhalation) and 2×10^6 VCaP prostate cancer cells suspended in 100 μl of PBS with 50% Matrigel (BD Biosciences) were implanted subcutaneously into the dorsal flank on both sides of the mice. […] Growth in tumor volume was recorded using digital calipers and tumor volumes were estimated using the formula (π/6) (L×W^2), where L=length of tumor and W=width. Loss of body weight during the course of the study was also monitored. At the end of the studies mice were sacrificed and tumors extracted and weighed. Additionally, femur bone marrow, liver and spleen were harvested to examine spontaneous metastasis by detecting human-Alu sequence. […] All procedures involving mice were approved by the University Committee on Use and Care of Animals (UCUCA) at the University of Michigan and conform to all regulatory standards.
A general note: In xenograft studies the graft and the host belong to different species.

Data set [3] concerns VCaP tumor xenograft. The procedure:
as §2

Data set [4] concerns VCaP prostate cancer cells. As to the kind of experiment: Cell growth inhibition, VCaP prostate cancer cells (Cell-Titer GLO). Format: cell-based. The settings on record: 8 days; FIG. 22. The procedure: For prostate cancer cell lines, VCaP prostate cancer cells were grown in DMEM with Glutamax (Gibco) supplemented with 10% FBS (Invitrogen) in 5% CO2 cell culture incubator. All cell lines were tested and found to be free of mycoplasma contamination. Cells were seeded in 96-well plates at 2,000-10,000 cells per well (optimum density for growth) in a total volume of […] media containing 10% FBS. Serially diluted compounds in […] media were added to the cells 12 h later. […] The values were normalized and IC50 was calculated using GraphPad Prism software.
Cells were seeded in 96-well plates at 2000-10,000 cells/well (optimum density for growth) in a total volume of 100 μl media containing 10% FBS. Serially diluted compounds in 100 μl media were added to the cells 12 h later. Following 96 h. incubation, cell viability was assessed by Cell-Titer GLO (Promega). The values were normalized and IC50 was calculated using GraphPad Prism software. […] After 12 days cells were fixed with methanol, stained with crystal violet and photographed. For colorimetric assays, the stained wells were treated with 500 μl 10% acetic acid and the absorbance was measured at 560 nm using a spectrophotometer.

For data set [5], the system named is AR. As to the kind of experiment: ChIP-seq of AR in DHT-stimulated VCaP cells. Format: cell-based. The settings on record: DHT 10 nM plus JQ1 500 nM, MDV3100 10 μM or Bicalutamide 25 μM, FIG. 17. The procedure: as §1
For enrichment plots shown in FIGS. 17, 19 and 20, identified peaks for each sample are centered by peak summit and average coverage per million was counted within 1500 bp relative to the peak center.

On to `CCNC(=O)C[C@@H]1N=C(c2ccc(Cl)cc2)c2cc(OC)ccc2-n2c(C)nnc21` [I-BET762], for which the “recruitment of BRD2/3/4 to the chromatin” value in data set [1] is “reduction in the recruitment”.

`CNC(=O)c1ccc(N2C(=S)N(c3ccc(C#N)c(C(F)(F)F)c3)C(=O)C2(C)C)cc1F` [MDV3100, enzalutamide]: the spontaneous metastasis result in data set [2] was “evidence of metastases in femur and liver”. For the same compound, in data set [3] (VCaP tumor-bearing mice, JQ1 50 mg/kg, MDV3100 10 mg/kg, 5 days/week, FIGS. 23-25), the tumor volume/weight entry is reported as “less pronounced effect”. Also, in data set [3] (mouse, in vivo), the tolerability result is “well tolerated”. Also, the “VCaP cell viability in vitro” value in data set [4] is given as “Marginal cell death”. The “recruitment of AR to target loci” value in data set [5] is reported as “markedly attenuated”.

For the origin of these results see patent US9580430B2, “9H-pyrimido[4,5-B]indoles and related analogs as BET bromodomain inhibitors” (THE REGENTS OF THE UNIVERSITY OF MICHIGAN, priority 2014, dated 2017).
